Results published in patent US6737383B1, “Herbicidal oxadiazolidines” (priority 1999, dated 2004).

What was measured:
purple nutsedge = test: Test B pre/postemergence purple nutsedge; type: in vivo, Cyperus rotundus; conditions: for Plant response rating, Nutsedge: scale of 0 to 10 where 0 is no effect and 10 is complete control
Method in brief: (§1)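 Response is a visual 0-to-10 score relative to untreated plants, where 0 means no effect and 10 means complete control, taken twelve to sixteen days after application. Treatments went onto soil at planting and onto foliage of 1- to 4-leaf plants, using a surfactant-containing non-phytotoxic solvent.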

wheat = test: Test B pre/postemergence wheat; type: in vivo, Triticum aestivum; conditions: for Plant response rating, Wheat: scale of 0 to 10 where 0 is no effect and 10 is complete control
Method in brief: as §1

duck salad = test: Test B flood test duck salad; type: in vivo, Heteranthera limosa
Method in brief: (§2)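 Read-out is a visual response score from 0 (no effect) to 10 (complete control), assigned by comparison with untreated controls. Treatment was applied at the 2-leaf stage, and plants stayed in the greenhouse for twelve to sixteen days before scoring.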

corn = test: Test B pre/postemergence corn; type: in vivo, Zea mays
Method in brief: as §1

wild oat = test: Test B pre/postemergence wild oat; type: in vivo, Avena fatua; conditions: for Plant response rating, Wild oats: scale of 0 to 10 where 0 is no effect and 10 is complete control
Method in brief: as §1

rape = test: Test B pre/postemergence rape; type: in vivo, Brassica napus; conditions: for Plant response rating, Rape: scale of 0 to 10 where 0 is no effect and 10 is complete control
Method in brief: as §1

rice = test: Test B flood test rice; type: in vivo, Oryza sativa
Method in brief: as §2

crabgrass = test: Test B pre/postemergence crabgrass; type: in vivo, Digitaria sanguinalis
Method in brief: as §1

surinam grass = test: Test B pre/postemergence surinam grass; type: in vivo, Brachiaria decumbens
Method in brief: as §1

pigweed = test: Test B pre/postemergence pigweed; type: in vivo, Amaranthus retroflexus; conditions: for Plant response rating, Redroot pigweed: scale of 0 to 10 where 0 is no effect and 10 is complete control
Method in brief: as §1

bamyardgrass = test: Test B flood test barnyardgrass; type: in vivo, Echinochloa crus-galli
Method in brief: as §2

velvetleaf = test: Test B pre/postemergence velvetleaf; type: in vivo, Abutilon theophrasti; conditions: for Plant response rating, Velvetleaf: scale of 0 to 10 where 0 is no effect and 10 is complete control
Method in brief: as §1

sugar beet = test: Test B pre/postemergence sugar beet; type: in vivo, Beta vulgaris; conditions: for Plant response rating, Sugarbeets: scale of 0 to 10 where 0 is no effect and 10 is complete control
Method in brief: as §1

giant foxtail = test: Test B pre/postemergence giant foxtail; type: in vivo, Setaria faberii
Method in brief: as §1

morningglory = test: Test B pre/postemergence morningglory; type: in vivo, Ipomoea hederacea; conditions: for Plant response rating, Morningglory: scale of 0 to 10 where 0 is no effect and 10 is complete control
Method in brief: as §1

blackgrass = test: Test B pre/postemergence blackgrass; type: in vivo, Alopecurus myosuroides
Method in brief: as §1

soybean = test: Test B pre/postemergence soybean; type: in vivo, Glycine max; conditions: for Plant response rating, Soybean: scale of 0 to 10 where 0 is no effect and 10 is complete control
Method in brief: as §1

smallflower flatsedge = test: Test B flood test smallflower flatsedge; type: in vivo, Cyperus difformis
Method in brief: as §2

cocklebur = test: Test B pre/postemergence cocklebur; type: in vivo, Xanthium strumarium
Method in brief: as §1

[1] = Postemergence, Rate 250 g/ha, scale 0 to 10
[2] = Preemergence, Rate 250 g/ha, scale 0 to 10, 0 is no effect, 10 is complete control
[3] = Preemergence, Rate 500 g/ha, scale 0 to 10, 0 is no effect, 10 is complete control
[4] = Rate 62 g/ha, Postemergence, scale 0 to 10 (0 no effect, 10 complete control)
[5] = Rate 125 g/ha, Postemergence, scale 0 to 10, 0 is no effect, 10 is complete control
[6] = Rate 62 g/ha, flood test species, Pre-emergence, visual evaluation after twelve to sixteen days
[7] = Rate 125 g/ha, under heading Pre-emergence, flood test species, visual evaluation after twelve to sixteen days
[8] = Rate 250 g/ha, Pre-emergence (flood test species), scale 0 to 10, 0 is no effect, 10 is complete control
[9] = Rate 500 g/ha, Pre-emergence, flood test species, scale 0 to 10 (0 no effect, 10 complete control)
[10] = Postemergence, Rate 500 g/ha, scale of 0 to 10 where 0 is no effect and 10 is complete control
[11] = Preemergence, Rate 62 g/ha, scale of 0 to 10 where 0 is no effect and 10 is complete control
[12] = Preemergence, Rate 125 g/ha, scale of 0 to 10 where 0 is no effect and 10 is complete control

COC(OC)C(C)n1c(=O)on(C(=O)N(c2ccc(F)cc2F)C(C)C)c1=O (stereo not shown) [Compound 472]
Nutsedge plant response rating (purple nutsedge; [1]): 0
Plant response rating, Nutsedge (purple nutsedge; Preemergence, Rate 62 g/ha): 0
Plant response rating, Nutsedge (purple nutsedge; Preemergence, Rate 125 g/ha): 0
Nutsedge plant response rating (purple nutsedge; [2]): 0
Nutsedge plant response rating (purple nutsedge; [3]): 10
Nutsedge plant response rating (purple nutsedge; [4]): 0
Nutsedge plant response rating (purple nutsedge; [5]): 0
Wheat plant response rating (wheat; [1]): 0
Plant response rating, Wheat (wheat; Preemergence, Rate 62 g/ha): 0
Plant response rating, Wheat (wheat; Preemergence, Rate 125 g/ha): 0
Wheat plant response rating (wheat; [2]): 0
Wheat plant response rating (wheat; [3]): 0
Wheat plant response rating (wheat; [4]): 0
Wheat plant response rating (wheat; [5]): 0
Plant response rating, Ducksalad (0 to 10 scale, 0 is no effect, 10 is complete control) (duck salad; [6]): 0
Ducksalad plant response rating (0 to 10 scale, 0 is no effect, 10 is complete control) (duck salad; [7]): 0
Ducksalad plant response rating (duck salad; [8]): 0
Ducksalad plant response rating (duck salad; [9]): 0
Corn plant response rating (corn; [1]): 0
Corn plant response rating (corn; [10]): 3
Plant response rating, Corn (corn; [11]): 0
Plant response rating, Corn (corn; [12]): 0
Corn plant response rating (corn; [2]): 2
Corn plant response rating (corn; [3]): 7
Corn plant response rating (corn; [4]): 0
Corn plant response rating (corn; [5]): 0
Wild oats plant response rating (wild oat; [1]): 0
Plant response rating, Wild oats (wild oat; Preemergence, Rate 62 g/ha): 2
Plant response rating, Wild oats (wild oat; Preemergence, Rate 125 g/ha): 5
Wild oats plant response rating (wild oat; [2]): 8
Wild oats plant response rating (wild oat; [3]): 10
Wild oats plant response rating (wild oat; [4]): 0
Wild oats plant response rating (wild oat; [5]): 0
Rape plant response rating (rape; [1]): 0
Plant response rating, Rape (rape; Preemergence, Rate 62 g/ha): 0
Plant response rating, Rape (rape; Preemergence, Rate 125 g/ha): 0
Rape plant response rating (rape; [2]): 0
Rape plant response rating (rape; [3]): 4
Rape plant response rating (rape; [4]): 0
Rape plant response rating (rape; [5]): 0
Plant response rating, Rice (0 to 10 scale, 0 is no effect, 10 is complete control) (rice; [6]): 0
Rice plant response rating (0 to 10 scale, 0 is no effect, 10 is complete control) (rice; [7]): 0
Rice plant response rating (rice; [8]): 0
Rice plant response rating (rice; [9]): 0
Crabgrass plant response rating (crabgrass; [1]): 8
Crabgrass plant response rating (crabgrass; [10]): 8
Plant response rating, Crabgrass (crabgrass; [11]): 9
Plant response rating, Crabgrass (crabgrass; [12]): 9
Crabgrass plant response rating (crabgrass; [2]): 10
Crabgrass plant response rating (crabgrass; [3]): 10
Crabgrass plant response rating (crabgrass; [4]): 7
Crabgrass plant response rating (crabgrass; [5]): 7
B. signalgrass plant response rating (surinam grass; Postemergence, Rate 250 g/ha, scale 0 to 10, 0 no effect, 10 complete control): 2
B. signalgrass plant response rating (surinam grass; [10]): 5
Plant response rating, B. signalgrass (surinam grass; [11]): 3
Plant response rating, B. signalgrass (surinam grass; [12]): 9
B. signalgrass plant response rating (surinam grass; [2]): 9
B. signalgrass plant response rating (surinam grass; [3]): 10
B. signalgrass plant response rating (surinam grass; [4]): 0
B. signalgrass plant response rating (surinam grass; [5]): 0
Redroot pigweed plant response rating (pigweed; [1]): 3
Plant response rating, Redroot pigweed (pigweed; Preemergence, Rate 62 g/ha): 10
Plant response rating, Redroot pigweed (pigweed; Preemergence, Rate 125 g/ha): 10
Redroot pigweed plant response rating (pigweed; [2]): 10
Redroot pigweed plant response rating (pigweed; [3]): 10
Redroot pigweed plant response rating (pigweed; [4]): 0
Redroot pigweed plant response rating (pigweed; [5]): 2
Plant response rating, Barnyardgrass (0 to 10 scale, 0 is no effect, 10 is complete control) (bamyardgrass; [6]): 0
Barnyardgrass plant response rating (0 to 10 scale, 0 is no effect, 10 is complete control) (bamyardgrass; [7]): 0
Barnyardgrass plant response rating (bamyardgrass; [8]): 0
Barnyardgrass plant response rating (bamyardgrass; [9]): 0
Velvetleaf plant response rating (velvetleaf; [1]): 2
Plant response rating, Velvetleaf (velvetleaf; Preemergence, Rate 62 g/ha): 1
Plant response rating, Velvetleaf (velvetleaf; Preemergence, Rate 125 g/ha): 3
Velvetleaf plant response rating (velvetleaf; [2]): 3
Velvetleaf plant response rating (velvetleaf; [3]): 7
Velvetleaf plant response rating (velvetleaf; [4]): 0
Velvetleaf plant response rating (velvetleaf; [5]): 0
Sugarbeets plant response rating (sugar beet; [1]): 0
Plant response rating, Sugarbeets (sugar beet; Preemergence, Rate 62 g/ha): 1
Plant response rating, Sugarbeets (sugar beet; Preemergence, Rate 125 g/ha): 2
Sugarbeets plant response rating (sugar beet; [2]): 3
Sugarbeets plant response rating (sugar beet; [3]): 6
Sugarbeets plant response rating (sugar beet; [4]): 0
Sugarbeets plant response rating (sugar beet; [5]): 0
Giant foxtail plant response rating (giant foxtail; [1]): 8
Giant foxtail plant response rating (giant foxtail; [10]): 8
Plant response rating, Giant foxtail (giant foxtail; [11]): 10
Plant response rating, Giant foxtail (giant foxtail; [12]): 10
Giant foxtail plant response rating (giant foxtail; [2]): 10
Giant foxtail plant response rating (giant foxtail; [3]): 10
Giant foxtail plant response rating (giant foxtail; [4]): 7
Giant foxtail plant response rating (giant foxtail; [5]): 7
Morningglory plant response rating (morningglory; [1]): 4
Plant response rating, Morningglory (morningglory; Preemergence, Rate 62 g/ha): 0
Plant response rating, Morningglory (morningglory; Preemergence, Rate 125 g/ha): 0
Morningglory plant response rating (morningglory; [2]): 0
Morningglory plant response rating (morningglory; [3]): 5
Morningglory plant response rating (morningglory; [4]): 3
Morningglory plant response rating (morningglory; [5]): 3
Blackgrass plant response rating (blackgrass; [1]): 2
Blackgrass plant response rating (blackgrass; [10]): 8
Plant response rating, Blackgrass (blackgrass; [11]): 9
Plant response rating, Blackgrass (blackgrass; [12]): 9
Blackgrass plant response rating (blackgrass; [2]): 10
Blackgrass plant response rating (blackgrass; [3]): 10
Blackgrass plant response rating (blackgrass; [4]): 0
Blackgrass plant response rating (blackgrass; [5]): 0
Soybean plant response rating (soybean; [1]): 2
Plant response rating, Soybean (soybean; Preemergence, Rate 62 g/ha): 0
Plant response rating, Soybean (soybean; Preemergence, Rate 125 g/ha): 0
Soybean plant response rating (soybean; [2]): 0
Soybean plant response rating (soybean; [3]): 3
Soybean plant response rating (soybean; [4]): 2
Soybean plant response rating (soybean; [5]): 2
Plant response rating, S. Flatsedge (0 to 10 scale, 0 is no effect, 10 is complete control) (smallflower flatsedge; [6]): 0
S. Flatsedge plant response rating (0 to 10 scale, 0 is no effect, 10 is complete control) (smallflower flatsedge; [7]): 0
S. Flatsedge plant response rating (smallflower flatsedge; [8]): 0
S. Flatsedge plant response rating (smallflower flatsedge; [9]): 0
Cocklebur plant response rating (cocklebur; [1]): 0
Cocklebur plant response rating (cocklebur; [10]): 1
Plant response rating, Cocklebur (cocklebur; [11]): 0
Plant response rating, Cocklebur (cocklebur; [12]): 0
Cocklebur plant response rating (cocklebur; [2]): 0
Cocklebur plant response rating (cocklebur; [3]): 2
Cocklebur plant response rating (cocklebur; [4]): 0
Cocklebur plant response rating (cocklebur; [5]): 0
